Structures are written as SMILES. pEC50: −log10 of the molar value.

In general, pEC50 refers to the EC50 on a negative log10 scale, so that one unit is a factor of ten.

The test system of one assay is ring stage parasites. Kind of assay: Parasite growth potency assay, 72 hours, LDH readout. The format is cell-based. The settings on record: 72 h. The protocol:
The parasite stock was maintained at 4% haematocrit in RPMI-Hepes media buffered with sodium bicarbonate and supplemented with 5% heat inactivated human serum and 0.5% albumax.
On the day of assay set up, a blood smear of the parasite culture was Giemsa stained and counted. The parasitemia was adjusted to 0.7% rings and the haematocrit was diluted to 2% in RPMI-Hepes media buffered with sodium bicarbonate and supplemented with 5% heat inactivated human serum and 0.5% albumax. 30 ul of diluted parasites are then added into 10 ul of media+compound in pre-prepared Greiner TC assay plates. Parasite assay plates were placed in gassed humidified boxes in single layer and allowed to incubate at 37° C. for 72 hours. After 72 hours growth, assay plates are sealed with parafilm and frozen flat, in single file at −80° C. overnight. On the following day, assay plates are allowed to thaw at room temperature for 4 hours to which an LDH assay is performed to measure parasite growth.
Molecule `CCC1(CC)CC(=O)N([C@H](c2cccc(OS(=O)(=O)F)c2)c2cccc(C(=O)N[C@H]3CCOc4ccccc43)c2)C(=N)N1` [Example 149A, [1-[[3-[[(4S)-chroman-4-yl]carbamoyl]phenyl]-(3-fluorosulfonyloxyphenyl)methyl]-4,4-diethyl-6-oxo-hexahydropyrimidin-2-ylidene]ammonium; 2,2,2-trifluoroacetate] had a pEC50 of 8.82.

Staying with this assay, now noted: 72 h, parasite growth measured by LDH assay after 72 hours at 37° C.; 0.7% rings, 2% haematocrit; read-out: EC50.
Take `CCC1(CC)CC(=O)N([C@H](CCOC)c2cc(F)cc(C(=O)N[C@H]3c4ccccc4CC3(C)O)c2)C(=N)N1` (single isomer, unassigned) [Example 144A, 3-[1-(4,4-diethyl-2-imino-6-oxo-hexahydropyrimidin-1-yl)-3-methoxy-propyl]-5-fluoro-N-(2-hydroxy-2-methyl-indan-1-yl)benzamide]: the negative-log EC50 (pEC50) is 7.09.

For `COCC[C@H](c1cncc(C(=O)N[C@H]2CC(C)(C)Oc3ccccc32)c1)N1C(=N)N[C@](C)(C(C)C)CC1=O` [Example 104, [(4S)-1-[1-[5-[[(4S)-2,2-dimethylchroman-4-yl]carbamoyl]pyridin-1-ium-3-yl]-3-methoxy-propyl]-4-isopropyl-4-methyl-6-oxo-hexahydropyrimidin-2-ylidene]ammonium; 2,2,2-trifluoroacetate], the pEC50 is 9.05.

`CCC1(CC)CC(=O)N([C@H](c2ccccc2)c2cccc(C(=O)N[C@H]3CCOc4ccccc43)c2)C(=N)N1` [Example 4A, [1-[[3-[[(4S)-chroman-4-yl]carbamoyl]phenyl]-phenyl-methyl]-4,4-diethyl-6-oxo-hexahydropyrimidin-2-ylidene]ammonium; 2,2,2-trifluoroacetate]: the pEC50 was 9.40.

Consider `CCC1(CC)CC(=O)N(Cc2ccnc(C(=O)N[C@H]3CCOc4ccccc43)c2)C(=N)N1` [Example 22, [1-[[2-[[(4S)-chroman-4-yl]carbamoyl]-4-pyridyl]methyl]-4,4-diethyl-6-oxo-hexahydropyrimidin-2-ylidene]ammonium; 2,2,2-trifluoroacetate], for which the pEC50 is 7.76.

Take `CCC1(CC)CC(=O)N(Cc2cccc(C(=O)N[C@@H]3CCOc4ccc(Cl)cc43)c2)C(=N)N1` [Example 215A, N-(6-chlorochroman-4-yl)-3-[(4,4-diethyl-2-imino-6-oxo-hexahydropyrimidin-1-yl)methyl]benzamide]: the pEC50 was 7.15.

As for `CCC1(CC)CC(=O)N(C(CCOC)c2ccc(C(F)(F)F)c(C(=O)N[C@@H]3c4ccccc4OC[C@@]3(C)O)c2)C(=N)N1` (stereo partly drawn) [Example 244, 5-[1-(4,4-diethyl-2-imino-6-oxo-hexahydropyrimidin-1-yl)-3-methoxy-propyl]-N-[(3S,4R)-3-hydroxy-3-methyl-chroman-4-yl]-2-(trifluoromethyl)benzamide], the pEC50 was 8.21.

As to `CCC1(CC)CC(=O)N(Cc2cc(C(=O)N[C@H]3CCOc4ccccc43)ccn2)C(=N)N1` [Example 23, [1-[[4-[[(4S)-chroman-4-yl]carbamoyl]-2-pyridyl]methyl]-4,4-diethyl-6-oxo-hexahydropyrimidin-2-ylidene]ammonium; 2,2,2-trifluoroacetate], the pEC50 is 7.94.

Consider `CCC1(CC)CC(=O)N([C@H](CCS(C)(=O)=O)c2cccc(C(=O)N[C@@H]3c4ccccc4C[C@H]3O)c2)C(=N)N1` [Example 153, [4,4-diethyl-1-[1-[3-[[(1R,2R)-2-hydroxyindan-1-yl]carbamoyl]phenyl]-3-methylsulfonyl-propyl]-6-oxo-hexahydropyrimidin-2-ylidene]ammonium; 2,2,2-trifluoroacetate], for which the pEC50 is 7.11.

Consider `CCC[C@H](c1cccc(C(=O)N[C@@H]2c3ccccc3OC[C@@]2(C)O)c1)N1C(=N)NC(CC)(CC)CC1=O` [Example 163A, 3-[(1R)-1-(4,4-diethyl-2-imino-6-oxo-hexahydropyrimidin-1-yl)butyl]-N-[(3S,4R)-3-hydroxy-3-methyl-chroman-4-yl]benzamide], for which the pEC50 was 9.52.

Consider `CCC1(CC)CC(=O)N(Cc2cccc(C(=O)N[C@@H]3c4ccccc4OCC3O)c2)C(=N)N1` (single isomer, unassigned) [Example 126A, 3-[(4,4-diethyl-2-imino-6-oxo-hexahydropyrimidin-1-yl)methyl]-N-(3-hydroxychroman-4-yl)benzamide], for which the pEC50 is 7.71.

Take `CCC1(CC)CC(=O)N(Cc2cccc(C(=O)N[C@@H]3c4ccccc4OCC3F)c2)C(=N)N1` (stereo in doubt) [Example 87, [4,4-diethyl-1-[[3-[(3-fluorochroman-4-yl)carbamoyl]phenyl]methyl]-6-oxo-hexahydropyrimidin-2-ylidene]ammonium; 2,2,2-trifluoroacetate]: the pEC50 was 8.14.

`CCC1(CC)CC(=O)N([C@@H](CCOC)c2cccc(C(=O)NC3CC(C)(C)Oc4ccccc43)c2)C(=N)N1` (stereo in doubt) [Example 72A, [1-[1-[3-[(2,2-dimethylchroman-4-yl)carbamoyl]phenyl]-3-methoxy-propyl]-4,4-diethyl-6-oxo-hexahydropyrimidin-2-ylidene]ammonium; 2,2,2-trifluoroacetate]: the pEC50 was 7.59.

Regarding `CCC1(CC)CC(=O)N([C@@H](c2cccnc2)c2cccc(C(=O)N[C@H]3CC(C)(C)Oc4ccccc43)c2)C(=N)N1` [Example 100B, [1-[[3-[[(4S)-2,2-dimethylchroman-4-yl]carbamoyl]phenyl]-pyridin-1-ium-3-yl-methyl]-4,4-diethyl-6-oxo-hexahydropyrimidin-2-ylidene]ammonium; 2,2,2-trifluoroacetate], the pEC50 is 8.32.

As to `CC(C)[C@]1(C)CC(=O)N(Cc2cccc(C(=O)NC3CC(C)(C)Oc4ccccc43)c2)C(=N)N1` (stereo partly drawn) [Example 79, [(4S)-1-[[3-[(2,2-dimethylchroman-4-yl)carbamoyl]phenyl]methyl]-4-isopropyl-4-methyl-6-oxo-hexahydropyrimidin-2-ylidene]ammonium; 2,2,2-trifluoroacetate], the pEC50 is 8.68.

Consider `CCC1(CC)CC(=O)N([C@@H](c2cncc(F)c2)c2cccc(C(=O)N[C@H]3CC(C)(C)Oc4ccccc43)c2)C(=N)N1` [Example 99B, [1-[[3-[[(4S)-2,2-dimethylchroman-4-yl]carbamoyl]phenyl]-(5-fluoropyridin-1-ium-3-yl)methyl]-4,4-diethyl-6-oxo-hexahydropyrimidin-2-ylidene]ammonium; 2,2,2-trifluoroacetate], for which the pEC50 was 8.70.

Turning to `CCC1(CC)CC(=O)N(Cc2cncc(C(=O)N[C@@H]3c4ccccc4C[C@H]3O)c2)C(=N)N1` [Example 39, [4,4-diethyl-1-[[5-[[(1R,2R)-2-hydroxyindan-1-yl]carbamoyl]pyridin-1-ium-3-yl]methyl]-6-oxo-hexahydropyrimidin-2-ylidene]ammonium; 2,2,2-trifluoroacetate], the pEC50 is 7.52.

The same assay, now with this note: parasite growth measured by LDH assay after 72 hours at 37° C.; 0.7% rings, 2% haematocrit; read-out: EC50.
For the molecule `CCC[C@H](c1cccc(C(=O)N[C@H]2c3ccccc3CC2(C)O)c1)N1C(=N)NC(CC)(CC)CC1=O` (single isomer, unassigned) [Example 122B], the pEC50 is 7.75.

As for `CC[C@]1(C)CC(=O)N([C@H](CCOC)c2cccc(C(=O)NC3c4cc(F)ccc4OC(C)(C)C3(C)O)c2)C(=N)N1` (single isomer, unassigned) [Example 237B], the pEC50 is 9.72.

For `CCC12CCCCCCC3COc4ccccc4C3NC(=O)c3cccc(c3)CN(C(=N)N1)C(=O)C2` (single isomer, unassigned) [Example 120B, (26-ethyl-8,29-dioxo-17-oxa-1,9,27-triazapentacyclo[24.2.2.13,7.010,19. 011,16]hentriaconta-3,5,7(31),11(16),12,14-hexaen-28-ylidene)ammonium; 2,2,2-trifluoroacetate], the negative-log EC50 (pEC50) was 7.45.

Consider `CCC1(CC)CC(=O)N(C(CC(OC)C(F)(F)F)c2cccc(C(=O)N[C@@H]3c4ccccc4C[C@H]3O)c2)C(=N)N1` (single isomer, unassigned) [Example 238B], for which the pEC50 is 7.17.

On to `COCC[C@H](c1cccc(C(=O)N[C@@H]2c3ccccc3C[C@]2(C)O)c1)N1C(=N)NC(C)(C)CC1=O` [Example 166B, N-[(1R,2S)-2-hydroxy-2-methyl-indan-1-yl]-3-[(1R)-1-(2-imino-4,4-dimethyl-6-oxo-hexahydropyrimidin-1-yl)-3-methoxy-propyl]benzamide], for which the pEC50 is 7.75.

The assay is the same for the next values; noted with them: parasite growth measured by LDH assay after 72 hours at 37° C.; 0.7% rings, 2% haematocrit; trifluoroacetate; read-out: EC50.
Consider `CCC1(CC)CC(=O)N([C@H](C)c2cccc(C(=O)N[C@@H]3c4ccccc4OC[C@]3(C)O)c2)C(=N)N1` [Example 205B, [4,4-diethyl-1-[(1R)-1-[3-[[(3R,4R)-3-hydroxy-3-methyl-chroman-4-yl]carbamoyl]phenyl]ethyl]-6-oxo-hexahydropyrimidin-2-ylidene]ammonium; 2,2,2-trifluoroacetate], for which the negative logarithm of the EC50 (pEC50) is 8.72.

Regarding `CCC1(CC)CC(=O)N(Cc2cccc(C(=O)N[C@H]3CC(c4ccccc4)Oc4ccccc43)c2)C(=N)N1` (stereo in doubt) [Example 218A, [4,4-diethyl-6-oxo-1-[[3-[(2-phenylchroman-4-yl)carbamoyl]phenyl]methyl]hexa-hydropyrimidin-2-ylidene]ammonium; 2,2,2-trifluoroacetate], the pEC50 was 7.26.

In the case of `CCC1(CC)CC(=O)N(Cc2cccc(C(=O)NC3CC(C)(C)Oc4ccccc43)c2)C(=N)N1` (single isomer, unassigned) [Example 51B, [1-[[3-[(2,2-dimethylchroman-4-yl)carbamoyl]phenyl]methyl]-4,4-diethyl-6-oxo-hexahydropyrimidin-2-ylidene]ammonium; 2,2,2-trifluoroacetate], the negative logarithm of the EC50 (pEC50) was 9.30.

(Values after patent publication US12629374B2, “Antimalarial agents” (Merck Sharp & Dohme LLC, priority 2020, dated 2026).)
